The results in this text go back to patent publication US6960559B1, “Neurite growth regulatory factors” (University of Zurich, priority 1988, dated 2005).

“And” between values parts separate entries of the source, which are not always exact repeats. Identical values can stand only once. Where a SMILES comes first, the peptide text is derived from it. [ ]: non-standard residue; d: D form. The star is where a group is joined. Sta = CC(C)C[C@H](N)[C@@H](O)CC(=O)O; Isovaleryl = CC(C)CC(=O)*; Cbz = O=C(OCc1ccccc1)*

The test system of one test is C6 cells. Kind of test: C6 cell spreading on CNS myelin or PLYS with protease inhibitors. As to conditions: for Inhibition on CNS (%): C6 cells, spreading on PLYS minus spreading on CNS myelin; for Effect on C6 cell spreading on CNS myelin, in words: Section 9. It counts as cell-based, rat. Here is the method: Rat C6, mouse NIH 3T3 and B16 cells were cultured in Dulbecco's modified Eagle's medium (DMEM) supplemented with 10% fetal calf serum (FCS), usually to maximally 70-80% confluency. Cells were harvested with a short trypsin treatment (0.1% in Ca^2+/Mg^2+-free Hank's medium for 90 seconds) stopped by addition of FCS in excess, collected by centrifugation. Cells were resuspended in either DMEM/FCS or defined serum-free medium (MEM) and used for experiments. Dissociated rat CNS glial cells were prepared starting from optic nerves of 6-7 days old Lewis rats as described in Section 6.1.1, supra and plated into poly-D-lysine (PLYS) coated wells (100 mm^2, 100 μl medium) at a density of 20,000 cells per well. The culture medium was an enriched L15 medium with 5% rat serum, penicillin and streptomycin. C6, 3T3 and B16 cells were added to 2 day old cultures at a concentration of 30,000 cells per well, incubated for two hours and fixed with warm 4% formalin in phosphate buffer. Inhibitory oligodendrocytes were identified by double labelling using the specific antibodies O1 and O4 (see Section 6.1.3, supra).
Myelin from rat spinal cord (CNS) or sciatic nerve (PNS) purified on a discontinuous sucrose gradient as described in Section 6.1.5., was dried overnight onto PLYS coated wells (20 μg protein/well of 100 mm^2 surface). Unbound membranes were removed by three washes with Ca^2+/Mg^2+-free Hank's solution. Myelin coated wells were immediately used in substrate testing assays by the addition of 9,000 cells (C6, 3T3, or B16) per cm^2. Alternatively, we used extracted CNS myelin protein, or SDS-PAGE purified 35 and 250 kD inhibitory proteins reconstituted in liposomes (see Section 7.1.5, supra). Experiments were scored at different time points using a phase contrast microscope equipped with a photocamera. Quantifications were done using a surface integration program; three arbitrary fields were photographed for each well at a magnitude of 80×, at least 25 cells per picture were measured. Each point represents the mean of at least 3 wells±SEM. Results are expressed as μ^2 of projected cell surface, or as degree, which was calculated by subtracting from the projected surface value of a spreading cell, the surface value of a completely spheric cell.

In the next test the test system is 3T3 cells. Kind of test: Treatment of CNS myelin with C6 plasma membranes, 3T3 spreading and 3H-thymidine incorporation. As to conditions: 3T3 spreading on CNS myelin pretreated with C6 plasma membranes. It counts as cell-based, mouse. The protocol: C6 cells grown to 80% confluency were washed twice with Hank's medium, and harvested in 20 ml 8.5% sucrose, 50 mM NaCl, 10 mM Tris buffer, pH 7.4, using a rubber policeman. After mechanical homogenization through a series of needles of decreasing size, a low purity plasma membrane fraction was obtained by centrifugation (5 minutes at 3000×g, 10 minutes at 8000×g, and then 2 hours at 100,000×g). A higher purity fraction was isolated by loading the material on a discontinuous sucrose gradient, containing 50 mM NaCl, 10 mM Tris, pH 7.4 (Quigley, 1976, J. Cell Biol. 71: 472-486). 20-40% sucrose interphase (C6 plasma membranes fraction) and 40-60% sucrose interphase (C6 mitochondrial fraction) were collected, washed in Hank's medium and resuspended in MEM.
CNS myelin coated PLYS wells were prepared as described in the previous section, but instead of being immediately tested as substrate, they were first incubated with 50 μl of C6 plasma membranes (containing 0.8 mg protein/ml MEM) at 37° for 30 minutes. Dishes were then rinsed twice with Hank's medium and immediately used as substrates for 3T3 cells. In some experiments, protease blockers were added to the membranes using 10 times concentrated solutions.
In general terms: Uptake of a labelled nucleoside into DNA is a usual measure of proliferation.

The next test has as its system cbz-FAF[^125I]Y-NH2. Kind of test: Degradation of cbz-FAF[125I]Y-NH2 by defined proteases and C6 cell fractions. It counts as biochemical. The protocol: Preparation of plasma membrane from C6 cells was performed according to (Raper and Kapfhammer, 1990, Neuron 2:21-29) with some modifications. Briefly, C6 cells were cultured in 30 culture dishes (13.5 cm diameter). At confluency, the culture medium was removed and the cell layers were frozen to −20° C. All subsequent manipulations were performed at 4° C.: cell debris were collected using a rubber policeman in 100 ml CMF-Hank's and further homogenized by 10 strokes in a Dounce homogenizer with teflon plunger. A small aliquot of this suspension was stored at −20° C. and used later (homogenate-fraction). The nuclear pellet was obtained by low speed centrifugation (10 min, 1000×g) in a Sorvall S22 rotor and stored at […] A crude vesicular fraction was obtained by centrifugating the nuclear supernatant in a Sorvall S22 rotor (20,000×g, 30 min), and was resuspended in 10 ml CMF-Hank's. After adding 20 ml 2.25 M sucrose in CMF-Hank's, this suspension was loaded on 4×8 ml 2.25 M sucrose in CMF-Hank's and centrifuged at 80,000×g for 1 h in a Beckman SW28 motor. Plasma membranes were harvested at the top and the mitochondrial fraction at the interphase of this 2 step gradient. Both fractions were diluted 10× with CMF-Hank's and pelleted (Beckman TI80, 22,000×g, 30 min). The two pellets were resuspended in 2 ml MEMα (1.3 mg protein/ml) supplemented with 0.5 mM DTT and stored at −20° C.
(§1) For most experiments, 70-80% confluent cell layers (1 cm^2 wells, 100 μl MEMα) or 2-5 μg C6 plasma membrane (100 μl MEMα) were used. Reactions were started by the addition of 10 μl cbz-FAF[^125I]Y-NH2 (SEQ ID NO:2) (2 μM in MEMα, 10,000-30,000 cpm). If indicated, cell layers or plasma membrane suspensions were preincubated for 30 min with protease blockers or peptides. NEM or iodacetamide incubations of plasma membranes were performed at pH 8.5. The incubation was stopped by loading a 10 μl aliquot of the incubation medium on a thin layer chromatography plate (10 cm height, Kieselgel 60 F254, MERCK, Germany) and air dried. Thin layer chromatography was routinely run with CHCl3:CH3OH:CH3COOH 32% (5:3:1). Plates were then air dried and exposed on Kodak X-OMAT films (NY, USA) with an intensifying screen. To identify the degradation products on thin-layer chromatography, we run reference peptides under the same conditions.
For the quantification of the activity, the reaction was stopped by addition of an equal volume of chloroform. This simple procedure allowed us to separate an organic phase containing the unreacted substrate cbz-FAF[^125I]Y-NH2 and an aqueous phase containing the charged degradation products (see also FIG. 30). Activity is expressed as % radioactivity contained in the aqueous phase. 100% is the sum of the radioactivity of both phases.

For test [1], the system named is C6 plasma membrane associated metalloendoprotease. Kind of test: Enzyme assay: cbz-FAF[125I]Y-NH2 degradation by C6 plasma membranes with protease blockers. It counts as biochemical, rat. The protocol: as §1, with “Reactions were started by the addition of 10 μl cbz-FAF[^125I]Y-NH2 (SEQ ID NO:2) (2 μM in MEMα, 10,000-30,000 cpm).” left out, “Thin layer chromatography was routinely run with CHCl3:CH3OH:CH3COOH 32% (5:3:1).” left out
For the quantification of the activity, the reaction was stopped by addition of an equal volume of chloroform. […] Activity is expressed as % radioactivity contained in the aqueous phase. 100% is the sum of the radioactivity of both phases.

As for `NC(=O)[C@H](Cc1ccccc1)NC(=O)CNC(=O)OCc1ccccc1` [cbz-gly-phe-NH2, carbobenzoxy-glycine-phenylalanine-amide] (Cbz-Gly-Phe-NH2), the “Inhibition on CNS (%)” value with C6 cells amounted to 55%. The “Effect on neutralization of CNS myelin inhibitory activity by C6 plasma membranes, in words” value in the test on 3T3 cells is “completely blocked the C6 plasma membrane effect”.
cathepsin D: acidic protease: the “Amount necessary to degrade 50% of substrate in 30 min” value with cbz-FAF[^125I]Y-NH2 (37° C., pH 7.4) was above 100 µg. Further, in the test on cbz-FAF[^125I]Y-NH2 (pH 4.0), the “Amount giving half maximal activity on cbz-FAFY-NH2” value turned out to be 5 ng and the “Amount necessary to degrade 50% of substrate in 30 min” value was found to be 0.005 µg.
Take `CC(=O)N[C@@H](CC(C)C)C(=O)N[C@@H](CC(C)C)C(=O)N[C@H](C=O)CCCNC(=N)N` [leupeptine]: the “Inhibition on CNS (%)” value with C6 cells is on record as 8%. Moreover, in the test on 3T3 cells, the “Effect on neutralization of CNS myelin inhibitory activity by C6 plasma membranes, in words” value is reported as “did not inhibit this effect”. In addition, the “Effect on cbz-FAF[^125I]Y-NH2 degradation by C6 plasma membranes, in words” value in test [1] was “had no effect”.
In the case of trypsin, the “Amount necessary to degrade 50% of substrate in 30 min” value with cbz-FAF[^125I]Y-NH2 (37° C., pH 7.4) came out at 0.3 µg.
Turning to `CC(C)C[C@H](NC(=O)[C@@H](O)[C@H](N)Cc1ccccc1)C(=O)O` [bestatine], in the test on C6 cells, the “Inhibition on CNS (%)” value is reported as 0% and the “Effect on C6 cell spreading on CNS myelin, in words” value (from here on “Effect on C6 cell spreading”) is reported as “did not impair C6 cell spreading”. In addition, in test [1], the “Effect on cbz-FAF[^125I]Y-NH2 degradation by C6 plasma membranes, in words” value is listed as “did not affect overall activity” and the “Effect on formation of Y-NH2 from cbz-FAF[^125I]Y-NH2, in words” value was “specifically inhibited the formation of Y-NH2”.
As for `O=S(=O)(F)Cc1ccccc1` [PMSF, Phenyl methyl sulfonyl fluoride], in the test on C6 cells, the “Inhibition on CNS (%)” value is listed as 6%. Besides, the “Effect on cbz-FAF[^125I]Y-NH2 degradation by C6 plasma membranes, in words” value in test [1] is reported as “had no effect”.
Regarding collagenase, the “Amount necessary to degrade 50% of substrate in 30 min” value in the test with cbz-FAF[^125I]Y-NH2 (37° C., pH 7.4) is 3 µg and 3.0 µg.
For Carboxymethyl-phe-leu [cm-phe-leu], in the test on C6 cells, the “Inhibition on CNS (%)” value is 3% and the “Effect on C6 cell spreading” value is given as “did not inhibit C6 cell spreading”. Besides, the “Effect on cbz-FAF[^125I]Y-NH2 degradation by C6 plasma membranes, in words” value in test [1] is “had no effect”.
As to `CC(C)CC(=O)N[C@H](C(=O)N[C@H](C(=O)N[C@@H](CC(C)C)[C@@H](O)CC(=O)N[C@@H](C)C(=O)N[C@@H](CC(C)C)[C@@H](O)CC(=O)O)C(C)C)C(C)C` [pepstatine] (Isovaleryl-VV[Sta]A[Sta]-OH), the “Inhibition on CNS (%)” value in the test on C6 cells was found to be 3%. The “Effect on neutralization of CNS myelin inhibitory activity by C6 plasma membranes, in words” value with 3T3 cells is recorded as “did not inhibit this effect”. Also, the “Effect on cbz-FAF[^125I]Y-NH2 degradation by C6 plasma membranes, in words” value in test [1] is listed as “had no effect”.
Consider `CC(C)C[C@H](NP(=O)(O)O[C@@H]1O[C@@H](C)[C@H](O)[C@@H](O)[C@H]1O)C(=O)N[C@@H](Cc1c[nH]c2ccccc12)C(=O)O` [phosphoramidon], for which, in the test on C6 cells, the “Inhibition on CNS (%)” value was found to be 9% and the “Effect on C6 cell spreading” value was “did not impair C6 cell spreading”. The “Effect on cbz-FAF[^125I]Y-NH2 degradation by C6 plasma membranes, in words” value in test [1] is recorded as “had no effect”.
